Literature values, collected in patent US20200138710A1, “COMPOSITIONS WITH PERMEATION ENHANCERS FOR DRUG DELIVERY” (Children's Medical Center Corporation, priority 2016, published 2020).

With `CO/N=C(\C(=O)N[C@@H]1C(=O)N2C(C(=O)O)=C(CSc3nc(=O)c(=O)[nH]n3C)CS[C@H]12)c1csc(N)n1` [Ceftriaxone] as the compound, how does the “Log P” value read?
The value was −1.47.

For `CC[C@H]1OC(=O)[C@H](C)[C@@H](O[C@H]2C[C@@](C)(OC)[C@@H](O)[C@H](C)O2)[C@H](C)[C@@H](O[C@@H]2O[C@H](C)C[C@H](N(C)C)[C@H]2O)[C@](C)(O)C[C@@H](C)CN(C)[C@H](C)[C@@H](O)[C@]1(C)O` [Azithromycin], which “Log P” value is on record?
Its value is 4.02.

Which “Log P” value does the source give for `CO/N=C(\C(=O)N[C@@H]1C(=O)N2C(C(=O)O)=C(COC(N)=O)CS[C@H]12)c1ccco1` [Cefuroxime] here?
Its value is −0.16.
